In the NIST ThermoML archive (doi:10.1016/j.jct.2012.11.005):

Columns and labels:
[1] = refractive index (Na D-line) (dimensionless); details: 293.15 K; 101.33 kPa; Liquid; Standard Abbe refractometry
[2] = 101.33 kPa, Liquid, Vibrating tube method
[3] = Boiling temperature at pressure P; details: Liquid, Closed cell (Static) method

CCCCO [butan-1-ol]
Details	refractive index
[1]	1.39705

Details	mass density [kg/m3]
[2], 298.15 K	805.851

C1CCCCC1 [cyclohexane]
Details	refractive index
[1]	1.42655

Details	mass density [kg/m3]
[2], 293.15 K	778.414

CC(C)OC(C)C [diisopropyl ether]
Details	refractive index
[1]	1.36547

Details	mass density [kg/m3]
[2], 298.15 K	718.511

CCO [ethanol]
Details	refractive index
[1]	1.35929

Details	Boiling temperature at pressure P [°C]	mass density [kg/m3]
[2], 298.15 K	–	784.89
[3], 17.99 kPa	40.00	–
[3], 20 kPa	42.23	–
[3], 29.6 kPa	50.00	–
[3], 40 kPa	56.49	–
[3], 47.01 kPa	60.00	–
[3], 49.99 kPa	61.37	–
[3], 59.93 kPa	65.51	–
[3], 69.95 kPa	69.13	–
[3], 79.91 kPa	72.33	–
[3], 89.92 kPa	75.16	–
[3], 100.07 kPa	77.90	–

CO [methanol]
Details	refractive index
[1]	1.32643

Details	Boiling temperature at pressure P [°C]	mass density [kg/m3]
[2], 298.15 K	–	786.624
[3], 19.97 kPa	28.22	–
[3], 24.04 kPa	32.00	–
[3], 29.98 kPa	36.41	–
[3], 39.04 kPa	42.00	–
[3], 50.01 kPa	47.57	–
[3], 60.94 kPa	52.00	–
[3], 69.96 kPa	55.42	–
[3], 79.92 kPa	58.59	–
[3], 89.99 kPa	61.58	–
[3], 100 kPa	64.18	–
